Measured values from patent US20250129135A1, “Multi-Agonist and Use Thereof” (priority 2021, published 2025).
Starred links: 1 amine or outer side, 2 acyl side, 3 side chain; linkers in the order of their positions; H or OH if unused. Non-standard residues stand in square brackets, D forms with d. Residues, ends and D or L forms follow the SMILES beside them. Groups on a side chain read outwards from the residue. *: point of attachment. C20 diacid = O=C(O)CCCCCCCCCCCCCCCCCCC(=O)*; αMePhe(2-F) = C[C@](N)(Cc1ccccc1F)C(=O)O; γGlu = O=C(O)[C@H](CCC(=O)[*:2])N[*:1]; αMeF = C[C@](N)(Cc1ccccc1)C(=O)O; αMeL = CC(C)C[C@](C)(N)C(=O)O; AEEA = NCCOCCOCC(=O)O; Ac3c = NC1(C(=O)O)CC1; Aib = CC(C)(N)C(=O)O

Key:
Human GLP-1R = Human GLP-1R (Homo sapiens, UniProt P43220); assay: cAMP (HTRF) activity in HEK-293 cells stably overexpressing human GLP-1 receptor; assay type: cell-based; design: expressed in transfected cells; host or cells: HEK-293; settings: for Human GLP-1R Rel. A (Relative Activity): EC50 of human GLP-1 (7-37) / EC50 of compound; for EC50: stable transfected cell cAMP activity, at least 3 independent tests
Chain of Human GLP-1R (P43220 24-463): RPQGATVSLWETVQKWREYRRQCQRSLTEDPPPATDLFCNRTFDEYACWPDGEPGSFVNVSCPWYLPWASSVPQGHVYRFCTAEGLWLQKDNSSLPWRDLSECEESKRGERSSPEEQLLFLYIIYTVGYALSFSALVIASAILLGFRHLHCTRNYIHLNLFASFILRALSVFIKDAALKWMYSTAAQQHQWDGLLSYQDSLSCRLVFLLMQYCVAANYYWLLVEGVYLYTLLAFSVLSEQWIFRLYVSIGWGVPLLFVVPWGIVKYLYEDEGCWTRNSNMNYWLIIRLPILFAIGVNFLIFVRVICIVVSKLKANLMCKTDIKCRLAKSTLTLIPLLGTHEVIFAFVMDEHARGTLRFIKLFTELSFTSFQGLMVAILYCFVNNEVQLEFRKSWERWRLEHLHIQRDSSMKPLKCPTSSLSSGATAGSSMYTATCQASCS
Method in brief: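 Cells resuspended in HBSS are incubated with compound for 60 min at room temperature, then with HTRF cAMP detection reagent for a further 60 min. Concentration-response fits give agonist EC50 values in nM.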

Human GIP R = biological target: T1, Human GIP R (Homo sapiens, UniProt P48546); assay: cAMP (HTRF) activity in CHO cells stably overexpressing GIP receptor; assay type: cell-based; settings: for Human GIP R Rel. A (Relative Activity): EC50 of human GIP / EC50 of compound; for EC50: stable transfected cell cAMP activity, at least 3 independent tests
T1 construct: expressed in transfected cells; host or cells: CHO
T1 sequence (P48546 22-466): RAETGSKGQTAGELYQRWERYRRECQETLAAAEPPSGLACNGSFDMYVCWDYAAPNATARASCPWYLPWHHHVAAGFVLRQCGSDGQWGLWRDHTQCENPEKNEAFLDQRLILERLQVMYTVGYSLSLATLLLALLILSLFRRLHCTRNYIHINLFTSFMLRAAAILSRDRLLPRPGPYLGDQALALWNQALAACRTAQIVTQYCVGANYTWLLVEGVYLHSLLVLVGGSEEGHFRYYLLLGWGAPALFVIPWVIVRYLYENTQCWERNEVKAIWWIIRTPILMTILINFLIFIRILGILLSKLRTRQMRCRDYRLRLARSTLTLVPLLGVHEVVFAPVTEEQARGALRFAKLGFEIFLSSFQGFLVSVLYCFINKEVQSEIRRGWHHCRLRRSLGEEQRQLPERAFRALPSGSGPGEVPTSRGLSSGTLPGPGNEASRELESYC
Procedure: (§1) By measuring the cAMP signal response levels of the aforementioned cells, the agonistic activity of individual compound towards the corresponding receptor was determined. The intracellular cAMP content was measured using reagent kit available from Cisbio Corp. based on HTRF (homogeneous time-resolved fluorescence) technology.
(§2) The cell fluid was transferred to 10 ml of HBSS for resuspension, and centrifuged at 1000 rpm for 5 minutes at room temperature.
(§3) 10 μL cell suspension was added to each well in the 384 well plate. […] Using the ECHO liquid transfer system, 100 nL of the prepared compound solution was added to the corresponding cell suspensions in the 384 well plate, rotated and shaken at 1000 rpm for 1 minute to mix evenly, and then incubated at room temperature for 60 minutes. 10 μL of detection reagent was added to each well after drug incubation was completed, and incubation was performed in the kit at room temperature for 60 minutes. […] GraphPad Prism 5 plotting software was used to create compound concentration response curves and EC50 (nM) values was calculated.

RIN-m5F cells = assay type: cell-based, rat; settings: for Rel. A (Relative Activity) on RIN-m5F: relative to GLP-1(7-37)
Method in brief: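 cAMP production measured in RIN-m5F cells resuspended in HBSS; compounds incubated 60 min at room temperature, then detection reagent added for a further 60 min before read-out.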

[1] = system: human primary liver cells; assay type: cell-based; settings: for Rel. A (Relative Activity) on human primary liver cells: relative to GCG
Procedure: The cAMP levels produced by compounds on human primary liver cells were determined in this experiment. Human primary liver cells were purchased from Lonza (cell product number HUCPG).
Frozen human primary liver cells were placed in a 37° C. constant temperature water bath for rapid thawing and recovery. The cell solution was transferred to 10 ml of HBSS for resuspension, and centrifuged at 1000 rpm for 5 minutes at room temperature.
10 μL cell suspension was added to each well in the 384 well plate. […] Using the ECHO liquid transfer system, 100 nL of the prepared compound solution was added to the corresponding cell suspensions in the 384 well plate, rotated and shaken at 1000 rpm for 1 minute to mix evenly, and then incubated at room temperature for 60 minutes. 10 μL of detection reagent was added to each well after drug incubation was completed, and incubation was performed for 60 minutes.

3T3-L1 adipocytes = settings: for Rel. A (Relative Activity) on 3T3-L1 adipocyte: relative to GIP
Method in brief: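 Mouse 3T3-L1 preadipocytes were differentiated with IBMX, dexamethasone and insulin for 5 days, then insulin plus 10 uM rosiglitazone for 3 days, then 10% FBS medium for 2–3 days. Mature adipocytes received 10-point, 3-fold compound dilutions for 60 min at room temperature. cAMP was read by kit detection reagent after a further 60 min, with concentration-effect curves fitted.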

Human GCG R = biological target: T2, Human GCG R (Homo sapiens, UniProt P47871); assay: cAMP (HTRF) activity in HEK-293 cells stably overexpressing human GCG receptor; assay type: cell-based; settings: EC50 of human GCG / EC50 of compound
T2 construct: expressed in transfected cells; host or cells: HEK-293
T2 sequence (P47871 26-477): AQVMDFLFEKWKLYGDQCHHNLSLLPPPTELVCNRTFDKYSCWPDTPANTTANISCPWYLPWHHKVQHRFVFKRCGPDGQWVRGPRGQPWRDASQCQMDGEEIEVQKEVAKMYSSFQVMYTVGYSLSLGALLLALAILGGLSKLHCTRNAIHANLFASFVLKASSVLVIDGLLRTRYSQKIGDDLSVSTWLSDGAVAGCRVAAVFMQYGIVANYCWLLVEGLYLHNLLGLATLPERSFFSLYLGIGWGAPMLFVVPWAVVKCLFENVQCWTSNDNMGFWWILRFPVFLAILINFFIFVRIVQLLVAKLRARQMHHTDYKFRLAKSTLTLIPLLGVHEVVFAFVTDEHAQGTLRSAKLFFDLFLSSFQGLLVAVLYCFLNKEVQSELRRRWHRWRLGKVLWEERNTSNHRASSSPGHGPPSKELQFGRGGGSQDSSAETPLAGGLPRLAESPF
Procedure: as §1, §2, §3

Structure (SMILES) | Human GLP-1R Rel. A (Relative Activity) (Human GLP-1R) [%] | Human GIP R Rel. A (Relative Activity) (Human GIP R) [%] | EC50 (Human GIP R) [nM] | EC50 (RIN-m5F cells) [nM] | Rel. A (Relative Activity) on RIN-m5F (RIN-m5F cells) [%] | EC50 [1] [nM] | Rel. A (Relative Activity) on human primary liver cells [1] [%] | EC50 (3T3-L1 adipocytes) [nM] | Rel. A (Relative Activity) on 3T3-L1 adipocyte (3T3-L1 adipocytes) [%] | Human GCG R Rel. A (Relative Activity) (Human GCG R) [%] | EC50 (Human GLP-1R) [nM]
CC[C@H](C)[C@H](NC(=O)[C@H](Cc1ccccc1)NC(=O)[C@H](C)NC(=O)C(C)(C)NC(=O)[C@H](CCC(N)=O)NC(=O)[C@H](C)NC(=O)[C@H](CCCCNC(=O)COCCOCCNC(=O)COCCOCCNC(=O)CC[C@H](NC(=O)CCCCCCCCCCCCCCCCCCC(=O)O)C(=O)O)NC(=O)[C@H](CCCCN)NC(=O)[C@H](CC(=O)O)NC(=O)[C@H](CC(C)C)NC(=O)[C@](C)(CC(C)C)NC(=O)[C@@H](NC(=O)[C@H](CO)NC(=O)[C@H](Cc1ccc(O)cc1)NC(=O)[C@H](CC(=O)O)NC(=O)[C@H](CO)NC(=O)[C@@H](NC(=O)[C@](C)(Cc1ccccc1)NC(=O)[C@@H](NC(=O)CNC(=O)[C@H](CCC(N)=O)NC(=O)C(C)(C)NC(=O)[C@@H](N)Cc1ccc(O)cc1)[C@@H](C)O)[C@@H](C)O)[C@@H](C)CC)C(=O)N[C@@H](CCC(=O)O)C(=O)N[C@@H](Cc1ccccc1)C(=O)N[C@@H](CC(C)C)C(=O)N[C@@H](CC(C)C)C(=O)N[C@@H](CCC(=O)O)C(=O)N[C@@H](CO)C(=O)N[C@@H](Cc1c[nH]cn1)C(=O)N1CCC[C@H]1C(=O)N[C@@H](CO)C(=O)N[C@@H](CO)C(=O)NC(C)(C)C(=O)N[C@@H](Cc1c[nH]cn1)C(=O)N1CCC[C@H]1C(=O)N1CCC[C@H]1C(=O)NC1(C(=O)N[C@@H](CO)C(N)=O)CC1 [Compound 33] (H-Y[Aib]QGT[αMeF]TSDYSI[αMeL]LDKK([AEEA-AEEA-γGlu-C20 diacid])AQ[Aib]AFIEFLLESHPSS[Aib]HPP[Ac3c]S-NH2; N-terminus assumed) | 231.58 | 2262.50 | 0.008 | 0.717 | 143.93 | 4.19 | 92.93 | 3.3 | 115.21 | 36.77 | 
CC[C@H](C)[C@H](NC(=O)[C@H](Cc1ccccc1)NC(=O)[C@H](C)NC(=O)C(C)(C)NC(=O)[C@H](CCC(N)=O)NC(=O)[C@H](C)NC(=O)[C@H](CCCCNC(=O)COCCOCCNC(=O)COCCOCCNC(=O)CC[C@H](NC(=O)CCCCCCCCCCCCCCCCCCC(=O)O)C(=O)O)NC(=O)[C@H](CCCCN)NC(=O)[C@H](CC(=O)O)NC(=O)[C@H](CC(C)C)NC(=O)[C@](C)(CC(C)C)NC(=O)[C@@H](NC(=O)[C@H](CO)NC(=O)[C@H](Cc1ccc(O)cc1)NC(=O)[C@H](CC(=O)O)NC(=O)[C@H](CO)NC(=O)[C@@H](NC(=O)[C@](C)(Cc1ccccc1F)NC(=O)[C@@H](NC(=O)CNC(=O)[C@H](CCC(N)=O)NC(=O)C(C)(C)NC(=O)[C@@H](N)Cc1ccc(O)cc1)[C@@H](C)O)[C@@H](C)O)[C@@H](C)CC)C(=O)N[C@@H](CCC(=O)O)C(=O)N[C@@H](Cc1ccc(O)cc1)C(=O)N[C@@H](CC(C)C)C(=O)N[C@@H](CC(C)C)C(=O)N[C@@H](CCC(=O)O)C(=O)N[C@H](C(=O)NCC(=O)N1CCC[C@H]1C(=O)N[C@@H](CO)C(=O)N[C@@H](CO)C(=O)NCC(=O)N[C@@H](CCC(N)=O)C(=O)N1CCC[C@H]1C(=O)N1CCC[C@H]1C(=O)NC1(C(=O)N[C@@H](CO)C(N)=O)CC1)[C@@H](C)O [Compound 34] (H-Y[Aib]QGT[αMePhe(2-F)]TSDYSI[αMeL]LDKK([AEEA-AEEA-γGlu-C20 diacid])AQ[Aib]AFIEYLLETGPSSGQPP[Ac3c]S-NH2; N-terminus assumed) | 191.30 | 3620.00 | 0.005 | 0.879 | 117.41 | 0.537 | 724.58 | 2.3 | 165.52 | 150.00 | 0.023
CC[C@H](C)[C@H](NC(=O)[C@H](Cc1ccccc1)NC(=O)[C@H](C)NC(=O)C(C)(C)NC(=O)[C@H](CCC(N)=O)NC(=O)[C@H](C)NC(=O)[C@H](CCCCNC(=O)COCCOCCNC(=O)COCCOCCNC(=O)CC[C@H](NC(=O)CCCCCCCCCCCCCCCCCCC(=O)O)C(=O)O)NC(=O)[C@H](CCCCN)NC(=O)[C@H](CC(=O)O)NC(=O)[C@H](CC(C)C)NC(=O)[C@](C)(CC(C)C)NC(=O)[C@@H](NC(=O)[C@H](CO)NC(=O)[C@H](Cc1ccc(O)cc1)NC(=O)[C@H](CC(=O)O)NC(=O)[C@H](CO)NC(=O)[C@@H](NC(=O)[C@](C)(Cc1ccccc1)NC(=O)[C@@H](NC(=O)CNC(=O)[C@H](CCC(N)=O)NC(=O)C(C)(C)NC(=O)[C@@H](N)Cc1ccc(O)cc1)[C@@H](C)O)[C@@H](C)O)[C@@H](C)CC)C(=O)N[C@@H](CCC(=O)O)C(=O)N[C@@H](Cc1ccc(O)cc1)C(=O)N[C@@H](CC(C)C)C(=O)N[C@@H](CC(C)C)C(=O)N[C@@H](CCC(=O)O)C(=O)N[C@H](C(=O)NCC(=O)N1CCC[C@H]1C(=O)N[C@@H](CO)C(=O)N[C@@H](CO)C(=O)NCC(=O)N[C@@H](CCC(N)=O)C(=O)N1CCC[C@H]1C(=O)N1CCC[C@H]1C(=O)NC1(C(=O)N[C@@H](CO)C(N)=O)CC1)[C@@H](C)O [Compound 35] (H-Y[Aib]QGT[αMeF]TSDYSI[αMeL]LDKK([AEEA-AEEA-γGlu-C20 diacid])AQ[Aib]AFIEYLLETGPSSGQPP[Ac3c]S-NH2; N-terminus assumed) | 200.00 | 2262.50 | 0.008 | 0.346 | 298.27 | 1.96 | 198.52 | 6.01 | 63.28 | 65.52 | 0.022
CC[C@H](C)[C@H](NC(=O)[C@H](Cc1ccccc1)NC(=O)[C@H](C)NC(=O)C(C)(C)NC(=O)[C@H](CCC(N)=O)NC(=O)[C@H](C)NC(=O)[C@H](CCCCNC(=O)COCCOCCNC(=O)COCCOCCNC(=O)CC[C@H](NC(=O)CCCCCCCCCCCCCCCCCCC(=O)O)C(=O)O)NC(=O)[C@H](CCCCN)NC(=O)[C@H](CC(=O)O)NC(=O)[C@H](CC(C)C)NC(=O)[C@](C)(CC(C)C)NC(=O)[C@@H](NC(=O)[C@H](CO)NC(=O)[C@H](Cc1ccc(O)cc1)NC(=O)[C@H](CC(=O)O)NC(=O)[C@H](CO)NC(=O)[C@@H](NC(=O)[C@](C)(Cc1ccccc1)NC(=O)[C@@H](NC(=O)CNC(=O)[C@H](CCC(N)=O)NC(=O)C(C)(C)NC(=O)[C@@H](N)Cc1ccc(O)cc1)[C@@H](C)O)[C@@H](C)O)[C@@H](C)CC)C(=O)N[C@@H](CCC(=O)O)C(=O)N[C@@H](Cc1ccccc1)C(=O)N[C@@H](CC(C)C)C(=O)N[C@@H](CC(C)C)C(=O)N[C@@H](CCC(=O)O)C(=O)NCC(=O)N[C@@H](CCCNC(=N)N)C(=O)N1CCC[C@H]1C(=O)N[C@@H](CO)C(=O)N[C@@H](CO)C(=O)NC(C)(C)C(=O)N[C@@H](Cc1c[nH]cn1)C(=O)N1CCC[C@H]1C(=O)N1CCC[C@H]1C(=O)N1CCC[C@H]1C(=O)N[C@@H](CO)C(N)=O [Compound 37] (H-Y[Aib]QGT[αMeF]TSDYSI[αMeL]LDKK([AEEA-AEEA-γGlu-C20 diacid])AQ[Aib]AFIEFLLEGRPSS[Aib]HPPPS-NH2; N-terminus assumed) | 157.14 | 1206.67 | 0.015 | 0.176 | 586.36 | 1.04 | 373.06 | 2.49 | 152.87 | 69.51 | 
